Assay results published in article PMC6095626, “Screening of the Pathogen Box for inhibitors with dual efficacy against Giardia lamblia and Cryptosporidium parvum” (PLoS Neglected Tropical Diseases, 2018).
“Also recorded” adds a separate entry of the source.

Assays:
[1] = test system: G. lamblia trophozoites (luciferase expressing, WBC6); experiment: microbe, parasite or virus in culture; format: cell-based, Giardia lamblia; settings: for Giardia (16 uM) Mean % inhibition: initial Pathogen Box screen, single concentration 16 µM, inhibition compared to DMSO wells; for G. lamblia EC50: luciferase expressing G. lamblia trophozoites, 24 hours, D-luciferin bioluminescence read-out
Summary of the method: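 Luciferase-expressing WBC6 trophozoites plated at 250,000 cells/mL, compounds added 1:1, incubated anaerobically (GasPak bags) at 37 °C for 24 h; viability read by bioluminescence, with duplicate plates counted on a MOXI Z cell counter. Metronidazole control serially diluted 1:2 from 40 μM.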

[2] = test system: C. parvum (UGA1 Nluc expressing strain in HCT-8 cells); experiment: microbe, parasite or virus in culture; format: cell-based, Cryptosporidium parvum; settings: for Crypto (10 uM) Mean % inhibition: initial Pathogen Box screen, single concentration 10 µM, inhibition compared to DMSO wells; for EC50: Nluc C. parvum in HCT-8 cells, 48 hours, read-out: C. parvum EC50
Summary of the method: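 HCT-8 monolayers grown 48 h to 90–100% confluence, treated with compound at 10 μM or serial dilutions, then infected with bleach-treated UGA1 Nluc C. parvum oocysts.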

Compound | Giardia (16 uM) Mean % inhibition [1] | Crypto (10 uM) Mean % inhibition [2] | G. lamblia EC50 [1] | EC50 [2] [µM]
O=C(CCC1CCCCC1)Nc1cccc(-c2nnc(-c3ccco3)o2)c1 [MMV676589] | 40% | 42% | – | –
CCCn1nnc(NC(=O)COc2ccc(C3CCCCC3)cc2)n1 [MMV676597] | 31% | 60% | – | –
CC(C)(C)n1nc(Cc2cccc3ccccc23)c2c(N)ncnc21 [MMV676599] | 21% | 86% | – | –
CO[C@@H](C(=O)N1Cc2[nH]nc(NC(=O)c3ccc(N4CCN(C)CC4)cc3)c2C1)c1ccccc1 [MMV676600] | 6% | 76% | – | –
CNC(=O)c1nn(C)c2c1C(C)(C)Cc1cnc(Nc3ccc(N4CCN(C)CC4)cc3)nc1-2 [MMV676602] | 94% | 85% | not effective; also recorded: not potent | 0.31
C[C@H]1COC2(CCN(c3nc(=O)c4cc(C(F)(F)F)cc([N+](=O)[O-])c4s3)CC2)O1 [MMV676603] | 77% | X* (Mean or standard deviation are negative but not significantly different from the control to be a growth promoter) | – | –
Cc1ncc(-c2ccnc(Nc3ccc(S(C)(=O)=O)cc3)n2)n1C(C)C [MMV676604] | 92% | 92% | not effective; also recorded: not potent | 2.9
CC1(O)CC(c2nc(-c3ccc4ccc(-c5ccccc5)nc4c3)c3c(N)nccn23)C1 (centres unmarked) [MMV676605] | 15% | X* (Mean or standard deviation are negative but not significantly different from the control to be a growth promoter) | – | –
O=C(c1ccc(NCCO)cc1)C1C[C@H]1c1ccc(Cl)cc1 (some centres unmarked) [MMV676877] | 8% | 70% | – | –
CCn1cnc2c(Nc3cc(F)cc(F)c3)nc(C#N)nc21 [MMV676881] | 9% | 53% | – | –
NC(=O)c1cc(-c2ccsc2)ccc1OCCOc1ccccc1 [MMV687138] | X* (Mean or standard deviation are negative but not significantly different from the control to be a growth promoter) | X* (Mean or standard deviation are negative but not significantly different from the control to be a growth promoter) | – | –
CCCCS(=O)(=O)Nc1ccc2cnn(C)c2c1 [MMV687145] | 56% | 32% | – | –
Cc1cc(C)c2cc(C(=O)NC3CCCCCCC3)[nH]c2c1 [MMV687146] | 15% | 33% | – | –
COc1ccc(Cn2cnc3c(-c4ccco4)nc(Cl)nc32)cc1 [MMV687170] | 40% | 77% | – | –
O=C(C1CCN(c2cc(-n3cccc3)ncn2)CC1)N1CCc2ccccc2C1 [MMV687172] | X* (Mean or standard deviation are negative but not significantly different from the control to be a growth promoter) | 48% | – | –
CCc1ccc([C@@H]2C[C@H](C(F)(F)F)n3ncc(C(=O)NCc4ccc(OC)cc4)c3N2)cc1 [MMV687180] | 23% | X* (Mean or standard deviation are negative but not significantly different from the control to be a growth promoter) | – | –
COc1ccc2nc(C)cc(OCC(=O)Nc3ccccc3OC)c2c1 [MMV687188] | 28% | 38% | – | –
COc1ccc2nc(C)cc(OCC(=O)NCc3ccccc3)c2c1 [MMV687189] | 16% | 23% | – | –
CC(C)(C(=O)Nc1ccc(F)cc1)n1cc(-c2ccccc2F)cn1 [MMV687239] | 39% | 59% | – | –
NC(=O)c1cc(Br)ccc1OCCOc1ccccc1 [MMV687243] | 66% | 77% | – | –
CN1CCN(S(=O)(=O)c2ccc(-c3ccc4c(Nc5ccc6n[nH]nc6c5)ccnc4c3)cc2)CC1 [MMV687246] | 30% | X* (Mean or standard deviation are negative but not significantly different from the control to be a growth promoter) | – | –

Compound | Giardia (16 uM) Mean % inhibition [1] | Crypto (10 uM) Mean % inhibition [2] | G. lamblia EC50 [1] | EC50 [2] [µM]
Nc1nc2cc(-c3cncc(Oc4ccc(F)cc4)c3)ccc2[nH]1 [MMV687248] | 22% | 72% | – | –
Cn1c(=O)c2c(S(C)(=O)=O)snc2n(C)c1=O [MMV687251] | 7.44% | 76% | – | –
CCCCc1ccc(C(=O)Nc2nccc3ccccc23)nc1 [MMV687254] | X* (Mean or standard deviation are negative but not significantly different from the control to be a growth promoter) | 77% | – | –
CC(C)=CCC/C(C)=C\CNCCNC1C2CC3CC(C2)CC1C3 (centres unmarked) [MMV687273] | 89% | 35% | – | –
CCc1nc2ccc(Cl)cn2c1C(=O)NCc1ccc(N2CCC(c3ccc(OC(F)(F)F)cc3)CC2)cc1 [MMV687696] | 26% | 21% | – | –
O=C(NCc1cc(Cl)cc(Cl)c1)c1c(C(F)(F)F)nc2ccccn12 [MMV687699] | 16% | 32% | – | –
Nc1ncnc2c1ncn2[C@@H]1O[C@H](COS(=O)(=O)NC(=O)c2ccccc2O)[C@@H](O)[C@H]1O [MMV687700] | 15% | X* (Mean or standard deviation are negative but not significantly different from the control to be a growth promoter) | – | –
COc1cccc(-c2nc3c(N4CCCC4)cccc3n2CC2CCCN2)n1 (centres unmarked) [MMV687703] | 26% | 77% | – | –
c1ccc(Oc2ccc(-c3cc(N4CCNCC4)[nH]n3)cc2)cc1 [MMV687706] | 30% | X* (Mean or standard deviation are negative but not significantly different from the control to be a growth promoter) | – | –
O=C1O[C@@H](CO)CN1c1cc(F)c(C2=CCN(Cc3ccccc3)CC2)c(F)c1 [MMV687729] | 25% | 74% | – | –
CCCCOC(=O)Nc1cc2[nH]c(C3CCCCC3)nc2cc1N1CCCC1 [MMV687730] | 24% | 61% | – | –
Cc1cc(OCC(=O)NCc2ccccc2)c2cc(Br)ccc2n1 [MMV687747] | 32% | 54% | – | –
c1ccc(C[C@@H]2CN(c3nccc(Oc4ccc(-n5ccnc5)cc4)n3)CCN2)cc1 [MMV687749] | 24% | 58% | – | –
c1ccc(Oc2ccc(-c3cc(C4CCOCC4)[nH]n3)cc2)cc1 [MMV687762] | X* (Mean or standard deviation are negative but not significantly different from the control to be a growth promoter) | 68% | – | –
Cc1cnc(N2CCN[C@@H](Cc3ccccc3)C2)nc1Oc1ccc(-n2ccnc2)cc1 [MMV687765] | 49% | 39% | – | –
CC1(C)OB(O)c2ccc(C3=NOC(c4cc(Cl)c(F)c(Cl)c4)(C(F)(F)F)C3)cc21 (centres unmarked) [MMV687775] | X* (Mean or standard deviation are negative but not significantly different from the control to be a growth promoter) | 56% | – | –
Cc1cc(C2=NOC(c3cc(Cl)c(F)c(Cl)c3)(C(F)(F)F)C2)ccc1C(=O)NCc1ccc2c(c1)C(C)(C)OB2O (centres unmarked) [MMV687776] | 27% | 83% | – | –
CC1(C)Cc2c(c(N3CCOCC3)nc3snc(Br)c23)CO1 [MMV687794] | 17% | X* (Mean or standard deviation are negative but not significantly different from the control to be a growth promoter) | – | –
NCCC(O)C(=O)N[C@@H]1C[C@H](N)[C@@H](OC2O[C@H](CN)[C@@H](O)[C@H](O)[C@H]2O)[C@H](O)C1OC1O[C@H](CO)[C@@H](O)[C@H](N)[C@H]1O (some centres unmarked) [MMV687796] | X* (Mean or standard deviation are negative but not significantly different from the control to be a growth promoter) | 82% | – | –
C[C@H]1COc2c(N3CCN(C)CC3)c(F)cc3c(=O)c(C(=O)O)cn1c23 [MMV687798] | 61% | 50% | – | –
